According to PMC11593036, “Comparative Characterization of Three Homologous Glutathione Transferases from the Weed Lolium perenne” (Foods, 2024):
Positions count from the first letter of the chain named.

Columns and labels:
Test in all cases: steady-state kinetics
Type in all cases: biochemical
LpGSTU5 = target: T1, LpGSTU5 (Lolium perenne, UniProt A0A165FYU2); conditions: co-substrate GSH; sigmoid, positive cooperativity between the two H-sites; read-out: Km (mM) (CDNB)
T1 construct: gene GST; full-length cDNA from leaf mRNA in pEXP5-CT/TOPO, E. coli BL21(DE3), GSH-Sepharose; reverse primer carries stop codon (no C-terminal tag); primer-encoded N-terminus MASEKSS
T1 sequence (A0A165FYU2 1-226): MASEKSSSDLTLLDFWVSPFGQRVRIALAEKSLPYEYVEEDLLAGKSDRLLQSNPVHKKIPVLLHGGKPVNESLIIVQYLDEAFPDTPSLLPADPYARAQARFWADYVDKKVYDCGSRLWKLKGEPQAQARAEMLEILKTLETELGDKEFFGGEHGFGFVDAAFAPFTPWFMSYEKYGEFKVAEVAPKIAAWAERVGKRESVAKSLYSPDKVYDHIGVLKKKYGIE
Text: steady-state kinetics on LpGSTU5

LpGSTU2 = target: T2, LpGSTU2 (Lolium perenne, UniProt A0A165FYT0); conditions: co-substrate GSH; read-out: Km (mM) (CDNB)
T2 construct: gene GST; full-length cDNA from leaf mRNA in pEXP5-CT/TOPO, E. coli BL21(DE3), GSH-Sepharose; reverse primer carries stop codon (no C-terminal tag); primer-encoded N-terminus MASEKSS
T2 sequence (A0A165FYT0 1-226): T1 sequence (A0A165FYU2 1-226) with S32N, D48E, A93S, S117T
Text: steady-state kinetics on LpGSTU2

LpGSTU25 [1] = target: T3, LpGSTU25 (Lolium perenne, UniProt A0A165FYR3); conditions: co-substrate GSH; read-out: Km (mM) (CDNB)
T3 construct: gene GST; full-length cDNA from leaf mRNA in pEXP5-CT/TOPO, E. coli BL21(DE3), GSH-Sepharose; reverse primer carries stop codon (no C-terminal tag); primer-encoded N-terminus MASEKSS
T3 sequence (A0A165FYR3 1-226): T1 sequence (A0A165FYU2 1-226) with V56A, L122F, R131K, H215F, K221Q
Text: (§1) steady-state kinetics on LpGSTU25

LpGSTU25 [2] = target: T4, LpGSTU25 (Lolium perenne, UniProt A0A165FYR3, F215T); conditions: co-substrate GSH; read-out: Km (mM) (CDNB)
T4 construct: gene GST; full-length cDNA from leaf mRNA in pEXP5-CT/TOPO, E. coli BL21(DE3), GSH-Sepharose; reverse primer carries stop codon (no C-terminal tag); primer-encoded N-terminus MASEKSS
T4 sequence (A0A165FYR3 1-226 F215T): T1 sequence (A0A165FYU2 1-226) with V56A, L122F, R131K, H215T, K221Q
Text: as §1

LpGSTU25 [3] = target: T5, LpGSTU25 (Lolium perenne, UniProt A0A165FYR3, F215R); conditions: co-substrate GSH; read-out: Km (mM) (CDNB)
T5 construct: gene GST; full-length cDNA from leaf mRNA in pEXP5-CT/TOPO, E. coli BL21(DE3), GSH-Sepharose; reverse primer carries stop codon (no C-terminal tag); primer-encoded N-terminus MASEKSS
T5 sequence (A0A165FYR3 1-226 F215R): T1 sequence (A0A165FYU2 1-226) with V56A, L122F, R131K, H215R, K221Q
Text: as §1

LpGSTU25 [4] = target: T6, LpGSTU25 (Lolium perenne, UniProt A0A165FYR3, F215Y); conditions: co-substrate GSH; read-out: Km (mM) (CDNB)
T6 construct: gene GST; full-length cDNA from leaf mRNA in pEXP5-CT/TOPO, E. coli BL21(DE3), GSH-Sepharose; reverse primer carries stop codon (no C-terminal tag); primer-encoded N-terminus MASEKSS
T6 sequence (A0A165FYR3 1-226 F215Y): T1 sequence (A0A165FYU2 1-226) with V56A, L122F, R131K, H215Y, K221Q
Text: as §1

LpGSTU25 [5] = target: T7, LpGSTU25 (Lolium perenne, UniProt A0A165FYR3, F215H); conditions: co-substrate GSH; read-out: Km (mM) (CDNB)
T7 construct: gene GST; full-length cDNA from leaf mRNA in pEXP5-CT/TOPO, E. coli BL21(DE3), GSH-Sepharose; reverse primer carries stop codon (no C-terminal tag); primer-encoded N-terminus MASEKSS
T7 sequence (A0A165FYR3 1-226 F215H): T1 sequence (A0A165FYU2 1-226) with V56A, L122F, R131K, K221Q
Text: as §1

LpGSTU25 [6] = target: T8, LpGSTU25 (Lolium perenne, UniProt A0A165FYR3, F215K); conditions: co-substrate GSH; read-out: Km (mM) (CDNB)
T8 construct: gene GST; full-length cDNA from leaf mRNA in pEXP5-CT/TOPO, E. coli BL21(DE3), GSH-Sepharose; reverse primer carries stop codon (no C-terminal tag); primer-encoded N-terminus MASEKSS
T8 sequence (A0A165FYR3 1-226 F215K): T1 sequence (A0A165FYU2 1-226) with V56A, L122F, R131K, H215K, K221Q
Text: as §1

LpGSTU25 [7] = target: T9, LpGSTU25 (Lolium perenne, UniProt A0A165FYR3, F215L); conditions: co-substrate GSH; read-out: Km (mM) (CDNB)
T9 construct: gene GST; full-length cDNA from leaf mRNA in pEXP5-CT/TOPO, E. coli BL21(DE3), GSH-Sepharose; reverse primer carries stop codon (no C-terminal tag); primer-encoded N-terminus MASEKSS
T9 sequence (A0A165FYR3 1-226 F215L): T1 sequence (A0A165FYU2 1-226) with V56A, L122F, R131K, H215L, K221Q
Text: as §1

LpGSTU25 [8] = target: T10, LpGSTU25 (Lolium perenne, UniProt A0A165FYR3, F215V); conditions: co-substrate GSH; read-out: Km (mM) (CDNB)
T10 construct: gene GST; full-length cDNA from leaf mRNA in pEXP5-CT/TOPO, E. coli BL21(DE3), GSH-Sepharose; reverse primer carries stop codon (no C-terminal tag); primer-encoded N-terminus MASEKSS
T10 sequence (A0A165FYR3 1-226 F215V): T1 sequence (A0A165FYU2 1-226) with V56A, L122F, R131K, H215V, K221Q
Text: as §1

LpGSTU25 [9] = target: T11, LpGSTU25 (Lolium perenne, UniProt A0A165FYR3, F215S); conditions: co-substrate GSH; read-out: Km (mM) (CDNB)
T11 construct: gene GST; full-length cDNA from leaf mRNA in pEXP5-CT/TOPO, E. coli BL21(DE3), GSH-Sepharose; reverse primer carries stop codon (no C-terminal tag); primer-encoded N-terminus MASEKSS
T11 sequence (A0A165FYR3 1-226 F215S): T1 sequence (A0A165FYU2 1-226) with V56A, L122F, R131K, H215S, K221Q
Text: as §1

O=[N+]([O-])c1ccc(Cl)c([N+](=O)[O-])c1 [CDNB]
Km (LpGSTU5): 0.1 ± 0.04 mM
Km (LpGSTU2): 0.47 ± 0.03 mM
Km (LpGSTU25 [1]): 0.28 ± 0.03 mM
Km (LpGSTU25 [2]): 0.31 ± 0.03 mM
Km (LpGSTU25 [3]): 0.92 ± 0.32 mM
Km (LpGSTU25 [4]): 0.91 ± 0.12 mM
Km (LpGSTU25 [5]): 0.68 ± 0.08 mM
Km (LpGSTU25 [6]): 0.77 ± 0.07 mM
Km (LpGSTU25 [7]): 0.25 ± 0.02 mM
Km (LpGSTU25 [8]): 0.29 ± 0.02 mM
Km (LpGSTU25 [9]): 0.33 ± 0.03 mM
